The target in this experiment is T1, 5-HT1A receptors (Rattus norvegicus, UniProt P19327).
T1 sequence (P19327 1-422): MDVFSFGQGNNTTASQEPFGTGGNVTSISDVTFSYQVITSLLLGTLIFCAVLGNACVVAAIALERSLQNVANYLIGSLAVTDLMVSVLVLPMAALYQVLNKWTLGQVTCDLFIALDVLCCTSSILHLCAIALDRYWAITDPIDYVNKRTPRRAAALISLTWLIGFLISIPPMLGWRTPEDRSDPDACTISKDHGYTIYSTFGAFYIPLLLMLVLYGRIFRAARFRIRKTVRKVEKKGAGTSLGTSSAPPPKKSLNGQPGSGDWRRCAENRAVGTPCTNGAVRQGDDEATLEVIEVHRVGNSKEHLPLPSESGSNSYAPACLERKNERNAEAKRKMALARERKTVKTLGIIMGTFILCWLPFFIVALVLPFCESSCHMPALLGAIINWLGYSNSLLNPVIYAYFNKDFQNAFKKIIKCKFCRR
Put plainly: [11C]WAY-100635-PET, BPND and 5-HT1A receptor occupancy. It counts as in vivo. Set-up: Twenty-micrometer-thick frozen brain sections were preincubated; from tissue; host or cells: rat brain (hippocampus and raphe nucleus): frozen sections or living animals. Conditions: for BPND Hippocampus / BPND Raphe: [11C]WAY-100635, about 5 h before scan, mean ± S.E.; for receptor occupancy at 1 mg/kg / receptor occupancy at 3 mg/kg / receptor occupancy at 10 mg/kg / receptor occupancy at 30 mg/kg / receptor occupancy at 100 mg/kg: rat. How it is done:
All PET scans were carried out using a microPET Focus 220 scanner (Siemens Medical Solutions USA, Knoxville, TN). The rats were anesthetized with 1.5–2% isoflurane in air (2 L/min flow rate). […] All list-mode data were stored into 3D sinograms, which were then Fourier-rebinned into 2D sinograms (26 frames: 4×1, 8×2, and 14×5 min). Images were reconstructed using 2D-filtered back-projection with a 0.5-mm Hanning filter. All PET images were manually coregistered to the MRI template by spatial translation and rotation of original PET images without geometric expansion and contraction. ROIs were placed on the hippocampus and raphe nucleus using PMOD® image analysis software (PMOD Group, Zurich, Switzerland) with reference to the MRI template. Fine-tuning of the location of ROIs was then performed based on PET images at an early phase (0–30 min) of the scan in order to compensate for small mismatches between coregistered PET and MR images. The cerebellum was used as reference tissue because of its negligible density of 5-HT1A receptors.

The mark [1] stands for this setting: po, read-out: Occupancy (%) Hippocampus.
[2] abbreviates: po, read-out: Occupancy (%) Raphe.

“And” between values parts separate entries of the source, which are not always exact repeats. Identical values can stand only once. Like-named read-outs stand apart in the source and are kept apart here.

Consider `Cc1nnc(-c2cc3c(OC[C@@H](O)CN4CCC(c5ccc(Cl)c(Cl)c5)CC4)cccc3o2)o1.Cl` [Wf-516, (2S)-1-[4-(3,4-dichlorophenyl)piperidin-1-yl]-3-[2-(5-methyl-1,3,4-oxadiazol-2-yl)benzo[b]furan-4-yloxy]propan-2-ol monohydrochloride], for which the “BPND Hippocampus” value (1 mg/kg oral) turned out to be 5.612±0.356; the “BPND Hippocampus” value (3 mg/kg oral) came to 5.589±0.410; the “BPND Hippocampus” value (10 mg/kg oral) was 4.937±0.550; the “BPND Hippocampus” value (30 mg/kg oral) turned out to be 4.836±0.441; the “BPND Hippocampus” value (100 mg/kg oral) is recorded as 4.962±0.400. Also, the “BPND Raphe” value came to 2.128±0.109 (1 mg/kg oral); 2.024±0.097 (3 mg/kg oral); 1.620±0.126 (10 mg/kg oral); 1.271±0.194 (30 mg/kg oral); 1.212±0.073 (100 mg/kg oral). The “Difference in maximal occupancy between hippocampus and raphe nucleus” value (oral, PET regression curves) is “more than 2.5 fold”. Besides, the “Maximal occupancy as calculated by the regression curve” value (raphe nucleus, oral, PET) is 53.8% and ~50%. Moreover, the receptor occupancy at 1 mg/kg reads like this: under setting [1], 7 ± 2.7%; under setting [2], 8.5 ± 7.6%. In addition, the receptor occupancy at 3 mg/kg runs as follows: under setting [1], 6.8 ± 7.1%; under setting [2], 13.2 ± 6.1%; (3 mg/kg oral, PET, read-out: Difference in occupancy between hippocampus and raphe nucleus) around 100%. Moreover, the receptor occupancy at 10 mg/kg under setting [1] worked out at 18.8 ± 6% and the receptor occupancy at 10 mg/kg under setting [2] was 30.6 ± 6.4%. Further, the receptor occupancy at 30 mg/kg came to 20.3 ± 4.1% under setting [1] and 46.3 ± 6.9% under setting [2]. Further, the receptor occupancy at 100 mg/kg is 17.8 ± 4.9% under setting [1] and 48.2 ± 3.3% under setting [2].

Values taken from article PMC3413639 (PLoS ONE, 2012).
